ChEMBL document CHEMBL3991945, “TASPASE1 inhibitors and their uses” (2013)
Activity calls are given as the source filed them. The rule behind the calls is not given here. Residues, ends and D or L forms follow the SMILES beside them. *: point of attachment. CH2Cl = ClC*

Tests used:
[1] = molecular target: T1, Threonine aspartase 1 (Homo sapiens) (UniProt Q9H6P5); experiment: Inhibition of recombinant Taspase1 (unknown origin) at 10 to 1000 uM using [35S]-methionine labeled human MLL1 (2400-2900 residues) as substrate preincubated for 30 mins followed by substrate addition measured after 30 mins by SDS-PAGE based autoradiography
T1 sequence (whole entry): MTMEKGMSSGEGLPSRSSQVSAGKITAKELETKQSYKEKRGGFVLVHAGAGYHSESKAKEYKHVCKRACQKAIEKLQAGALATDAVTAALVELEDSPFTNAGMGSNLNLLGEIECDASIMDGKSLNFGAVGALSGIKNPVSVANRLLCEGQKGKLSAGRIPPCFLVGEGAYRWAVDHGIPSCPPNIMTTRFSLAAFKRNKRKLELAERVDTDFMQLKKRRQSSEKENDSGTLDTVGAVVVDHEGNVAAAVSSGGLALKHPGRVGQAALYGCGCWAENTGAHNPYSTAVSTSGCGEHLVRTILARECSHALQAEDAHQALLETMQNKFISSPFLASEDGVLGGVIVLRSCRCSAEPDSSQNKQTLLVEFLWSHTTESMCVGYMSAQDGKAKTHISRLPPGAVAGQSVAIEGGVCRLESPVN

Threonine aspartase 1 = molecular target: T2, Threonine aspartase 1 (Homo sapiens, UniProt Q9H6P5); experiment: Inhibition of recombinant Taspase1 (unknown origin) using [35S]-methionine labeled human MLL1 (2400-2900 residues) as substrate preincubated for 30 mins followed by substrate addition measured after 30 mins by SDS-PAGE based autoradiography
T2 sequence (Q9H6P5 whole entry): T1 sequence (whole entry)

[2] = molecular target: T1, Threonine aspartase 1 (Homo sapiens); experiment: Inhibition of recombinant Taspase1 (unknown origin) at 1 mM using [35S]-methionine labeled human MLL1 (2400-2900 residues) as substrate preincubated for 30 mins followed by substrate addition measured after 30 mins by SDS-PAGE based autoradiography
Caspase-8 (Homo sapiens) = Caspase-8 (Homo sapiens) (UniProt Q14790); experiment: Inhibition of recombinant caspase8 (unknown origin) at 1 mM using [35S]-methionine labeled p22 BID as substrate preincubated for 30 mins followed by substrate addition measured after 2 hrs by SDS-PAGE based autoradiography
[3] = molecular target: T1, Threonine aspartase 1 (Homo sapiens); experiment: Inhibition of recombinant Taspase1 (unknown origin) at 10 uM using [35S]-methionine labeled human MLL1 (2400-2900 residues) as substrate preincubated for 30 mins followed by substrate addition measured after 30 mins by SDS-PAGE based autoradiography
[4] = molecular target: T1, Threonine aspartase 1 (Homo sapiens); experiment: Covalent irreversible inhibition of recombinant Taspase1 (unknown origin) at 0.1 mM using [35S]-methionine labeled human MLL1 (2400-2900 residues) as substrate preincubated for 15 to 60 mins followed by substrate addition measured after 30 mins by SDS-PAGE based autoradiography
MEF [5] = experiment: Growth inhibition of SV40 transformed Taspase1 deficient MEF after 2 days by MTT assay; format: functional, cell-based; settings: Mus musculus
MEF [6] = experiment: Growth inhibition of SV40 transformed wild-type Taspase1 expressing MEF after 2 days by MTT ssay; format: functional, cell-based; settings: Mus musculus
SF-295 = experiment: Growth inhibition of human SF295 cells expressing Taspase1; format: functional, cell-based
MCF7 = experiment: Growth inhibition of human MCF7 cells expressing Taspase1; format: functional, cell-based
T47D = experiment: Growth inhibition of human T47D cells expressing Taspase1; format: functional, cell-based
MDA-MB-231 = experiment: Growth inhibition of human MDA-MB-231 cells expressing Taspase1; format: functional, cell-based
BT-549 = experiment: Growth inhibition of human BT549 cells expressing Taspase1; format: functional, cell-based
Hs-578T = experiment: Growth inhibition of human Hs578T cells expressing Taspase1; format: functional, cell-based
U-251 = experiment: Growth inhibition of human U251 cells expressing Taspase1; format: functional, cell-based
SF-539 = experiment: Growth inhibition of human SF539 cells expressing Taspase1; format: functional, cell-based
SNB-75 = experiment: Growth inhibition of human SNB75 cells expressing Taspase1; format: functional, cell-based
SF-268 = experiment: Growth inhibition of human SF268 cells expressing Taspase1; format: functional, cell-based
[7] = molecular target: T1, Threonine aspartase 1 (Homo sapiens); experiment: Inhibition of recombinant Taspase1 (unknown origin) up to 0.1 mM using [35S]-methionine labeled human MLL1 (2400-2900 residues) as substrate preincubated for 30 mins followed by substrate addition measured after 30 mins by SDS-PAGE based autoradiography

Caspase-8 (Homo sapiens), sequence (Q14790 217-374 limits assumed): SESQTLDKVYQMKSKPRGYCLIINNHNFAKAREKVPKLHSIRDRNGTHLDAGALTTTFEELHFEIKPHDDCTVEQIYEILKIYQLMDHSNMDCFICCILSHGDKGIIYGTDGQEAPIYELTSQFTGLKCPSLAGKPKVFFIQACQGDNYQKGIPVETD
Caspase-8 (Homo sapiens), sequence (Q14790 385-479 limits assumed): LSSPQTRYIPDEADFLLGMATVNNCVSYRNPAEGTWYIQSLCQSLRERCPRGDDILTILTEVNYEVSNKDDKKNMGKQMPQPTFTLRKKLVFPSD

SMILES: O=C(O)Cc1ccc(Oc2ccc(CC(=O)O)cc2)cc1
- inhibition [1]: inactive

SMILES: CC[C@H](C)[C@H](NC(C)=O)C(=O)N[C@@H](CO)C(=O)N[C@@H](CCC(N)=O)C(=O)N[C@@H](CC(C)C)C(=O)N[C@@H](CC(=O)O)C(=O)CCl (Ac-ISQLD-CH2Cl)
- IC50 (Threonine aspartase 1): > 100 µM

SMILES: CC[C@H](C)[C@H](NC(=O)[C@H](CCCCN)NC(C)=O)C(=O)N[C@@H](CO)C(=O)N[C@@H](CCC(N)=O)C(=O)N[C@@H](CC(C)C)C(=O)N[C@H](C=O)CC(=O)O (Ac-KISQLD-aldehyde)
- IC50 (Threonine aspartase 1): > 100 µM

SMILES: O=[As](O)(O)c1ccc(Cc2ccc([As](=O)(O)O)cc2)cc1
- inhibition [2]: Active
- inhibition (Caspase-8 (Homo sapiens)): inactive
- inhibition [3]: Active
- inhibition [4]: inactive
- growth inhibition (GI) (MEF [5]): inactive
- growth inhibition (GI) (MEF [6]): Active
- growth inhibition (GI) (SF-295): Active
- growth inhibition (GI) (MCF7): Active
- growth inhibition (GI) (T47D): Active
- growth inhibition (GI) (MDA-MB-231): Active
- growth inhibition (GI) (BT-549): Active
- growth inhibition (GI) (Hs-578T): Active
- growth inhibition (GI) (U-251): Active
- growth inhibition (GI) (SF-539): Active
- growth inhibition (GI) (SNB-75): Active
- growth inhibition (GI) (SF-268): Active

SMILES: O=[As](O)(O)O
- inhibition [7]: inactive
